# Measured values: ChEMBL document CHEMBL2146376, “'Inverted' analogs of the antibiotic gramicidin S with an improved biological profile” (Bioorg Med Chem, 2012)
# Square brackets hold non-standard residues; d marks the D form. Peptide text beside a SMILES is read from it. Gly(1-adamantyl) = N[C@H](C(=O)O)C12CC3CC(CC(C3)C1)C2; Orn = NCCC[C@H](N)C(=O)O
# Legend:
# [1] = test system: Staphylococcus aureus; assay: Antibacterial activity against Staphylococcus aureus ATCC 29213 after 24 hrs by broth dilution method; format: functional; settings: ATCC 29213, 24 h
# [2] = test system: Staphylococcus epidermidis; assay: Antibacterial activity against Staphylococcus epidermidis ATCC 12228 after 24 hrs by broth dilution method; format: functional; settings: ATCC 12228, 24 h
# [3] = test system: Enterococcus faecalis; assay: Antibacterial activity against Enterococcus faecalis ATCC 29212 after 24 hrs by broth dilution method; format: functional; settings: ATCC 29212, 24 h
# [4] = test system: Bacillus cereus; assay: Antibacterial activity against Bacillus cereus ATCC 11778 after 24 hrs by broth dilution method; format: functional; settings: ATCC 11778, 24 h
# [5] = test system: Escherichia coli; assay: Antibacterial activity against Escherichia coli ATCC 25922 after 24 hrs by broth dilution method; format: functional; settings: ATCC 25922, 24 h
# [6] = test system: Pseudomonas aeruginosa; assay: Antibacterial activity against Pseudomonas aeruginosa ATCC 27853 after 24 hrs by broth dilution method; format: functional; settings: ATCC 27853, 24 h
# [7] = test system: Staphylococcus aureus; assay: Antibacterial activity against PVL-positive and non-typable methicillin-resistant Staphylococcus aureus 1110301981H-T034 after 24 hrs by broth dilution method; format: functional
# [8] = test system: Staphylococcus aureus; assay: Antibacterial activity against PVL-deficient and non-typable methicillin-resistant Staphylococcus aureus N133-T034 after 24 hrs by broth dilution method; format: functional; settings: N133-T034, 24 h
# [9] = test system: Staphylococcus aureus; assay: Antibacterial activity against PVL-deficient and non-typable methicillin-resistant Staphylococcus aureus N229-T034 after 24 hrs by broth dilution method; format: functional; settings: N229-T034, 24 h
# [10] = test system: Staphylococcus aureus; assay: Antibacterial activity against PVL-positive and non-typable methicillin-resistant Staphylococcus aureus USA300-1110301146 after 24 hrs by broth dilution method; format: functional; settings: USA300-1110301146, 24 h
# [11] = Toxicity in human erythrocytes assessed as concentration required to achieve 100% hemolysis after 4 hrs; format: cell-based; settings: erythrocyte
SMILES,MIC [1],MIC [2],MIC [3],MIC [4],MIC [5],MIC [6],MIC [7],MIC [8],MIC [9],MIC [10],Activity [11]
CC(C)C[C@@H]1NC(=O)[C@H](CCCN)NC(=O)[C@@H]2CCCN2C(=O)[C@@H](Cc2ccccc2)NC(=O)[C@H](CCCN)NC(=O)[C@H](CC23CC4CC(CC(C4)C2)C3)NC(=O)[C@H](CCCN)NC(=O)[C@@H]2CCCN2C(=O)[C@@H](Cc2ccccc2)NC(=O)[C@H](CCCN)NC1=O,64 µg/mL,4 µg/mL,64 µg/mL,16 µg/mL,64 µg/mL,16 µg/mL,64 µg/mL,32 µg/mL,32 µg/mL,32 µg/mL,> 500 µM
CC(C)(C)[C@@H]1NC(=O)[C@H](CCCN)NC(=O)[C@@H]2CCCN2C(=O)[C@@H](Cc2ccccc2)NC(=O)[C@H](CCCN)NC(=O)[C@H](C(C)(C)C)NC(=O)[C@H](CCCN)NC(=O)[C@@H]2CCCN2C(=O)[C@@H](Cc2ccccc2)NC(=O)[C@H](CCCN)NC1=O,> 64 µg/mL,64 µg/mL,> 64 µg/mL,> 64 µg/mL,> 64 µg/mL,> 64 µg/mL,> 64 µg/mL,> 64 µg/mL,> 64 µg/mL,> 64 µg/mL,> 500 µM
CC(C)(C)C[C@@H]1NC(=O)[C@H](CCCN)NC(=O)[C@@H]2CCCN2C(=O)[C@@H](Cc2ccccc2)NC(=O)[C@H](CCCN)NC(=O)[C@H](CC(C)(C)C)NC(=O)[C@H](CCCN)NC(=O)[C@@H]2CCCN2C(=O)[C@@H](Cc2ccccc2)NC(=O)[C@H](CCCN)NC1=O,> 64 µg/mL,16 µg/mL,> 64 µg/mL,> 64 µg/mL,> 64 µg/mL,64 µg/mL,> 64 µg/mL,> 64 µg/mL,> 64 µg/mL,> 64 µg/mL,> 500 µM
CCCCCCCCCC[C@@H]1NC(=O)[C@H](CCCN)NC(=O)[C@@H]2CCCN2C(=O)[C@@H](Cc2ccccc2)NC(=O)[C@H](CCCN)NC(=O)[C@H](C(C)C)NC(=O)[C@H](CCCN)NC(=O)[C@@H]2CCCN2C(=O)[C@@H](Cc2ccccc2)NC(=O)[C@H](CCCN)NC1=O,16 µg/mL,8 µg/mL,16 µg/mL,4 µg/mL,16 µg/mL,16 µg/mL,16 µg/mL,8 µg/mL,8 µg/mL,8 µg/mL,500 µM
CC(C)[C@@H]1NC(=O)[C@H](CCCN)NC(=O)[C@@H]2CCCN2C(=O)[C@@H](Cc2ccccc2)NC(=O)[C@H](CCCN)NC(=O)[C@H](C(C)C)NC(=O)[C@H](CCCN)NC(=O)[C@@H]2CCCN2C(=O)[C@@H](Cc2ccccc2)NC(=O)[C@H](CCCN)NC1=O,> 64 µg/mL,64 µg/mL,> 64 µg/mL,> 64 µg/mL,> 64 µg/mL,> 64 µg/mL,> 64 µg/mL,> 64 µg/mL,> 64 µg/mL,> 64 µg/mL,> 500 µM
NCCC[C@@H]1NC(=O)[C@H](CC23CC4CC(CC(C4)C2)C3)NC(=O)[C@H](CCCN)NC(=O)[C@@H]2CCCN2C(=O)[C@@H](Cc2ccccc2)NC(=O)[C@H](CCCN)NC(=O)[C@H](CC23CC4CC(CC(C4)C2)C3)NC(=O)[C@H](CCCN)NC(=O)[C@@H]2CCCN2C(=O)[C@@H](Cc2ccccc2)NC1=O,8 µg/mL,4 µg/mL,8 µg/mL,8 µg/mL,8 µg/mL,16 µg/mL,8 µg/mL,8 µg/mL,8 µg/mL,8 µg/mL,62.5 µM
CCCCCCCCCC[C@@H]1NC(=O)[C@H](CCCN)NC(=O)[C@@H]2CCCN2C(=O)[C@@H](Cc2ccccc2)NC(=O)[C@H](CCCN)NC(=O)[C@H](CCCCCCCCCC)NC(=O)[C@H](CCCN)NC(=O)[C@@H]2CCCN2C(=O)[C@@H](Cc2ccccc2)NC(=O)[C@H](CCCN)NC1=O,64 µg/mL,4 µg/mL,32 µg/mL,8 µg/mL,64 µg/mL,64 µg/mL,64 µg/mL,64 µg/mL,64 µg/mL,64 µg/mL,62.5 µM
CC(C)C[C@@H]1NC(=O)[C@H](CCCN)NC(=O)[C@H](C(C)C)NC(=O)[C@@H]2CCCN2C(=O)[C@@H](Cc2ccccc2)NC(=O)[C@H](CC(C)C)NC(=O)[C@H](CCCN)NC(=O)[C@H](C(C)C)NC(=O)[C@@H]2CCCN2C(=O)[C@@H](Cc2ccccc2)NC1=O [GRAMICIDIN S] (cyclo(L[dF]PV[Orn]L[dF]PV[Orn])),8 µg/mL,8 µg/mL,16 µg/mL,8 µg/mL,32 µg/mL,64 µg/mL,8 µg/mL,8 µg/mL,8 µg/mL,8 µg/mL,31.3 µM
CC(C)C[C@@H]1NC(=O)[C@H](CCCN)NC(=O)[C@@H]2CCCN2C(=O)[C@@H](Cc2ccccc2)NC(=O)[C@H](CCCN)NC(=O)[C@H](CC(C)(C)C)NC(=O)[C@H](CCCN)NC(=O)[C@@H]2CCCN2C(=O)[C@@H](Cc2ccccc2)NC(=O)[C@H](CCCN)NC1=O,> 64 µg/mL,16 µg/mL,> 64 µg/mL,> 64 µg/mL,> 64 µg/mL,> 64 µg/mL,> 64 µg/mL,> 64 µg/mL,> 64 µg/mL,> 64 µg/mL,> 500 µM
CC(C)C[C@@H]1NC(=O)[C@H](CCCN)NC(=O)[C@@H]2CCCN2C(=O)[C@@H](Cc2ccccc2)NC(=O)[C@H](CCCN)NC(=O)[C@H](CC(C)C)NC(=O)[C@H](CCCN)NC(=O)[C@@H]2CCCN2C(=O)[C@@H](Cc2ccccc2)NC(=O)[C@H](CCCN)NC1=O,> 64 µg/mL,64 µg/mL,> 64 µg/mL,> 64 µg/mL,> 64 µg/mL,> 64 µg/mL,,,,,> 500 µM
CC(C)[C@@H]1NC(=O)[C@H](CCCN)NC(=O)[C@@H]2CCCN2C(=O)[C@@H](Cc2ccccc2)NC(=O)[C@H](CCCN)NC(=O)[C@H](C23CC4CC(CC(C4)C2)C3)NC(=O)[C@H](CCCN)NC(=O)[C@@H]2CCCN2C(=O)[C@@H](Cc2ccccc2)NC(=O)[C@H](CCCN)NC1=O,64 µg/mL,16 µg/mL,> 64 µg/mL,64 µg/mL,> 64 µg/mL,64 µg/mL,> 64 µg/mL,> 64 µg/mL,> 64 µg/mL,> 64 µg/mL,> 500 µM
CC(C)(C)[C@@H]1NC(=O)[C@H](CCCN)NC(=O)[C@@H]2CCCN2C(=O)[C@@H](Cc2ccccc2)NC(=O)[C@H](CCCN)NC(=O)[C@H](C23CC4CC(CC(C4)C2)C3)NC(=O)[C@H](CCCN)NC(=O)[C@@H]2CCCN2C(=O)[C@@H](Cc2ccccc2)NC(=O)[C@H](CCCN)NC1=O,64 µg/mL,4 µg/mL,> 64 µg/mL,32 µg/mL,32 µg/mL,32 µg/mL,64 µg/mL,64 µg/mL,64 µg/mL,64 µg/mL,> 500 µM
CC(C)(C)C[C@@H]1NC(=O)[C@H](CCCN)NC(=O)[C@@H]2CCCN2C(=O)[C@@H](Cc2ccccc2)NC(=O)[C@H](CCCN)NC(=O)[C@H](CC23CC4CC(CC(C4)C2)C3)NC(=O)[C@H](CCCN)NC(=O)[C@@H]2CCCN2C(=O)[C@@H](Cc2ccccc2)NC(=O)[C@H](CCCN)NC1=O,16 µg/mL,4 µg/mL,32 µg/mL,4 µg/mL,16 µg/mL,16 µg/mL,16 µg/mL,16 µg/mL,16 µg/mL,16 µg/mL,500 µM
CC(C)[C@@H]1NC(=O)[C@H](CCCN)NC(=O)[C@@H]2CCCN2C(=O)[C@@H](Cc2ccccc2)NC(=O)[C@H](CCCN)NC(=O)[C@H](C(C)(C)C)NC(=O)[C@H](CCCN)NC(=O)[C@@H]2CCCN2C(=O)[C@@H](Cc2ccccc2)NC(=O)[C@H](CCCN)NC1=O,> 64 µg/mL,64 µg/mL,> 64 µg/mL,> 64 µg/mL,> 64 µg/mL,> 64 µg/mL,> 64 µg/mL,> 64 µg/mL,> 64 µg/mL,> 64 µg/mL,> 500 µM
NCCC[C@@H]1NC(=O)[C@H](C23CC4CC(CC(C4)C2)C3)NC(=O)[C@H](CCCN)NC(=O)[C@@H]2CCCN2C(=O)[C@@H](Cc2ccccc2)NC(=O)[C@H](CCCN)NC(=O)[C@H](C23CC4CC(CC(C4)C2)C3)NC(=O)[C@H](CCCN)NC(=O)[C@@H]2CCCN2C(=O)[C@@H](Cc2ccccc2)NC1=O (cyclo([Orn][dF]P[Orn][Gly(1-adamantyl)][Orn][dF]P[Orn][Gly(1-adamantyl)])),8 µg/mL,4 µg/mL,8 µg/mL,8 µg/mL,8 µg/mL,16 µg/mL,8 µg/mL,8 µg/mL,8 µg/mL,8 µg/mL,500 µM
